These results are taken from US11124516B2, “Pyrrolo[1,2-A]pyrimidinyl carboxamide compounds and their use in the treatment of medical disorders” (Bial—Biotech Investments, Inc., priority 2016, dated 2021).

Bounds are passed on as bounds.

This experiment has as its target T1, glucocerebrosidase (Gcase) (Homo sapiens, UniProt P04062).
T1 sequence (P04062 40-536): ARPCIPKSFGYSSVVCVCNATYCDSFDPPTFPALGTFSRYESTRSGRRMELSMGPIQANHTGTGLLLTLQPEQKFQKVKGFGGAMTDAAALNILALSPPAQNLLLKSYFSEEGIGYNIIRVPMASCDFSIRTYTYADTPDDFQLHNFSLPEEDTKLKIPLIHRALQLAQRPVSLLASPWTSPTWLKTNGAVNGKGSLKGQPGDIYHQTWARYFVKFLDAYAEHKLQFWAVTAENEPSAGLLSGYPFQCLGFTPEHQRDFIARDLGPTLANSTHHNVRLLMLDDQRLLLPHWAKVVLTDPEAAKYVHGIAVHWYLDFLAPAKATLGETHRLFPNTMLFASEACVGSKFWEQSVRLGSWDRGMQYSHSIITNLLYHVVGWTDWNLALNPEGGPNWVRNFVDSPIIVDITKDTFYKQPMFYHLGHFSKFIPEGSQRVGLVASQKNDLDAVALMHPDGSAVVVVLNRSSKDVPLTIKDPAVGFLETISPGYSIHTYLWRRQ
As to the kind of experiment: Glucocerebrosidase (Gcase) activation assay, 4-methylumbelliferyl-beta-D-glucopyranoside substrate, fluorescence. To be noted: 10 nM GCase, 100 nM saposin C; for activation at 0.1 µM / activation at 1 µM: 0.25 h; for activation at 0.1 µM: pH 4.7, test compound at 0.1 μM, read-out: Percent Gcase Activation 0.1 μM Test Compound; for activation at 1 µM: pH 4.7, test compound at 1.0 μM, read-out: Percent Gcase Activation 1 μM Test Compound; for Percent Gcase Activation 1 μM Test Compound: test compound at 1.0 μM. The class given is biochemical. Here is the method:
The ability of exemplary compounds to activate glucocerebrosidase (Gcase) was measured.
A 484 μL aliquot of a 1.0 mg/mL solution of phosphatidylserine (PS) (Sigma P7769) in chloroform was evaporated under a stream of nitrogen for 1 hour. The lipid film was dissolved over 4 minutes of vigorous vortexing in 40 mL of 176 mM K2HPO4/50 mM citric acid (pH 4.7) containing 7.5 μL of triton X-100, resulting in a mixed micellar preparation with a composition of 0.32 mM triton and 0.37 mol % PS. 4-Methylumbelliferyl-beta-D-glucopyranoside (ACROS-337025000) was dissolved in the micellar solution to a final concentration of 2 mM for use as the reaction substrate.
Test compounds were diluted to the desired concentrations with dimethylsulfoxide (DMSO) from 10 mM stocks, and 0.41 μL of the DMSO compound mixture was added to 100 μL of micellar solution containing 10 nM GCase and 100 nM saposin C (Enzo ALX-201-262-C050). Pre-incubation was allowed to occur for 30 minutes at room temperature, after which the reaction was initiated by combining 25 μL of substrate solution with 25 μL of compound/GCase/saposin mixture. The reaction proceeded for 15 minutes at room temperature and was stopped by adding 150 μL of 1M glycine, pH 12.5. The endpoint of the reaction was monitored by measuring fluorescence intensity (excitation: 365 nm; emission: 440 nm) on a SpectraMax i3 instrument (Molecular Devices). Test compounds were screened at 1.0 and 0.1 μM final concentration, and subsequent 8-point dose response curves were obtained using 3-fold dilutions from a maximum final concentration of 5 μM.
For experiments in which the test compound was used at a concentration of 1.0 μM, the symbol “+” indicates less than 30% Gcase activation; the symbol “++” indicates Gcase activation in the range of 30% up to 60%; and the symbol “+++” indicates Gcase activation greater than 60%. For experiments in which the test compound was used at a concentration of 0.1 μM, the symbol “*” indicates less than 10% Gcase activation; the symbol “**” indicates Gcase activation in the range of 10% up to 20%; and the symbol “***” indicates greater than 20% Gcase activation.

For `Cc1cc(C)n2ccc(C(=O)N[C@@H](C)c3nc4ccccc4n3C)c2n1` [IV-37], the activation at 0.1 µM is less than 10% and the activation at 1 µM was less than 30%.
As to `Cc1cc(C)n2ccc(C(=O)NC(C)C3COc4ccccc4O3)c2n1` (stereo not drawn) [IV-82], the activation at 0.1 µM was less than 10%. Also, the “Percent Gcase Activation 1 μM Test Compound” value (pH 4.7) is on record as “+++ (Gcase activation greater than 60%)”.
For the molecule `Cc1cc(C)n2ccc(C(=O)NC(C)c3cccc(N4CCCC4)c3)c2n1` (stereo not drawn) [IV-102], the activation at 0.1 µM is less than 10% and the activation at 1 µM is greater than 60%.
With `Cc1cc(C)n2ccc(C(=O)NC(C)C3CCCCC3)c2n1` (stereo not drawn) [III-67], the “Percent Gcase Activation 0.1 μM Test Compound” value (test compound at 0.1 μM, pH 4.7) is “*** (greater than 20% Gcase activation)”. The “Percent Gcase Activation 1 μM Test Compound” value (pH 4.7) is “+++ (Gcase activation greater than 60%)”.
In the case of `Cc1cc(C)n2ccc(C(=O)NC(C)c3ccc(-c4cccnc4)cc3)c2n1` (stereo not drawn) [IV-43], the activation at 0.1 µM was less than 10% and the activation at 1 µM is 30 to 60%.
As for `Cc1cc(C)n2ccc(C(=O)NC(C)(C)c3ccc(F)cc3)c2n1` [IV-103], the activation at 0.1 µM is greater than 20% and the activation at 1 µM is greater than 60%.
The matching figures for `CCCCO[C@H]1CC[C@H](NC(=O)c2ccn3c(C)cc(C4CCOCC4)nc23)CC1` [III-32]: less than 10% and 30 to 60%.
Taken in the same sequence, the figures for `Cc1cc(C)n2ccc(C(=O)NC(C)c3ncc(-c4ccccc4)o3)c2n1` (stereo not drawn) [IV-65] were 10 to 20% and greater than 60%.
The matching figures for `CCC(=O)Nc1ccc(C(C)NC(=O)c2ccn3c(C)cc(C)nc23)cc1` (stereo not drawn) [IV-98]: greater than 20% and greater than 60%.
As for `Cc1cc(C)n2ccc(C(=O)NC(C)(C)c3cccc(Cl)c3)c2n1` [IV-96], the activation at 0.1 µM was greater than 20% and the activation at 1 µM is greater than 60%.
Taken in the same sequence, the figures for `Cc1cc(C)n2ccc(C(=O)NC(C)c3ccc(C)c(F)c3)c2n1` (stereo not drawn) [IV-104] were greater than 20% and greater than 60%.
With `Cc1cc(C)n2ccc(C(=O)NC(C)C34CC5CC(C3)C(C5)C4)c2n1` (stereo not drawn) [IV-89], the activation at 0.1 µM was greater than 20% and the activation at 1 µM is greater than 60%.
Take `Cc1cc(C)n2ccc(C(=O)NC(C)c3nnn(C4CC4)n3)c2n1` (stereo not drawn) [IV-76]: the activation at 0.1 µM is less than 10% and the activation at 1 µM is less than 30%.
Taken in the same sequence, the figures for `Cc1cc(C)n2ccc(C(=O)NC(C)c3nnn(-c4ccccc4)n3)c2n1` (stereo not drawn) [IV-80] were less than 10% and less than 30%.
Taken in the same sequence, the figures for `Cc1cc(C)n2ccc(C(=O)N[C@H](C)c3ccc(F)cc3)c2n1` [IV-97] were 10 to 20% and greater than 60%.
The matching figures for `Cc1cc(C)n2ccc(C(=O)NC(C)c3ccccc3-c3ccccc3)c2n1` (stereo not drawn) [IV-70]: less than 10% and greater than 60%.
For `Cc1cc(C)n2ccc(C(=O)NC(C)c3ccc(-n4cccn4)cc3)c2n1` (stereo not drawn) [IV-68], the activation at 0.1 µM was 10 to 20% and the activation at 1 µM was greater than 60%.
Taken in the same sequence, the figures for `Cc1cc(-c2ncccn2)nc2c(C(=O)NC(C)(C)C3CC3)ccn12` [III-43] were 10 to 20% and greater than 60%.
The matching figures for `CCn1c(C(C)NC(=O)c2ccn3c(C)cc(C)nc23)nc2c1CCCC2` (stereo not drawn) [IV-106]: less than 10% and less than 30%.
The matching figures for `Cc1cc(C)n2ccc(C(=O)N[C@H](C)c3cccc4c3CCCC4)c2n1` [IV-95]: 10 to 20% and greater than 60%.
Turning to `CCC(NC(=O)c1ccn2c(C)cc(C)nc12)c1nc2ccccc2[nH]1` (stereo not drawn) [IV-86], the activation at 0.1 µM was less than 10% and the activation at 1 µM was less than 30%.
Taken in the same sequence, the figures for `CCC(NC(=O)c1ccn2c(C)cc(C)nc12)c1cccc(Cl)c1` (stereo not drawn) [IV-105] were greater than 20% and greater than 60%.
With `Cc1cc(C)n2ccc(C(=O)NC(C)c3cccc(-n4cccn4)c3)c2n1` (stereo not drawn) [IV-75], the activation at 0.1 µM lay within 10 to 20% and the activation at 1 µM was greater than 60%.
Taken in the same sequence, the figures for `Cc1cc(C)n2ccc(C(=O)NC(CO)c3ccc(C(C)C)cc3)c2n1` (stereo not drawn) [IV-93] were less than 10% and less than 30%.
Taken in the same sequence, the figures for `Cc1cc(C)n2ccc(C(=O)NC(C)C3CCCC3)c2n1` (stereo not drawn) [III-69] were 10 to 20% and greater than 60%.
Taken in the same sequence, the figures for `CCC(CO)(NC(=O)c1ccn2c(C)cc(C)nc12)c1ccccc1` (stereo not drawn) [IV-101] were less than 10% and 30 to 60%.
In the case of `Cc1cc(C)n2ccc(C(=O)NC(CO)c3ccc4ccccc4c3)c2n1` (stereo not drawn) [IV-90], the activation at 0.1 µM was less than 10% and the activation at 1 µM was less than 30%.
In the case of `CCOc1ccc(C(C)NC(=O)c2ccn3c(C)cc(C)nc23)cc1` (stereo not drawn) [IV-88], the activation at 0.1 µM was greater than 20% and the activation at 1 µM is greater than 60%.
Taken in the same sequence, the figures for `Cc1cc(C)n2ccc(C(=O)NC(C)c3ccccc3-n3cccn3)c2n1` (stereo not drawn) [IV-67] were less than 10% and 30 to 60%.
The matching figures for `Cc1cc(C)n2ccc(C(=O)N[C@H](C)c3ccc4c(c3)OCO4)c2n1` [IV-84]: 10 to 20% and greater than 60%.
Taken in the same sequence, the figures for `Cc1cc(C)n2ccc(C(=O)NC(CO)c3cccc(C)c3C)c2n1` (stereo not drawn) [IV-92] were less than 10% and less than 30%.
Turning to `CCC(NC(=O)c1ccn2c(C)cc(C)nc12)C12CC3CC(C1)C(C3)C2` (stereo not drawn) [IV-72], the activation at 0.1 µM is greater than 20% and the activation at 1 µM is greater than 60%.
As for `Cc1cc(C)n2ccc(C(=O)NC(Cc3ccccc3)c3ccccc3)c2n1` (stereo not drawn) [IV-81], the activation at 0.1 µM was greater than 20% and the activation at 1 µM is greater than 60%.
Taken in the same sequence, the figures for `Cc1cc(C)n2ccc(C(=O)NC(CO)C34CC5CC(CC(C5)C3)C4)c2n1` (stereo not drawn) [IV-34] were less than 10% and 30 to 60%.
Taken in the same sequence, the figures for `Cc1cc(C)n2ccc(C(=O)NC(C)c3ccccc3F)c2n1` (stereo not drawn) [IV-108] were 10 to 20% and greater than 60%.
On to `Cc1cc(C)n2ccc(C(=O)NC(C)c3ccccc3C)c2n1` (stereo not drawn) [IV-63], for which the activation at 0.1 µM was greater than 20% and the activation at 1 µM is greater than 60%.
Consider `CCC(NC(=O)c1ccn2c(C)cc(C)nc12)c1ccc(OC)cc1` (stereo not drawn) [IV-83], for which the activation at 0.1 µM is greater than 20% and the activation at 1 µM is greater than 60%.
The matching figures for `Cc1cc(C)n2ccc(C(=O)NC(C)c3ccc(-c4ccccc4)cc3)c2n1` (stereo not drawn) [IV-77]: greater than 20% and greater than 60%.
As for `COc1ccccc1C(C)NC(=O)c1ccn2c(C)cc(C)nc12` (stereo not drawn) [IV-60], the activation at 0.1 µM is greater than 20% and the activation at 1 µM is greater than 60%.
Taken in the same sequence, the figures for `Cc1cc(C)n2ccc(C(=O)NC(C)c3nc(C4CCCCC4)no3)c2n1` (stereo not drawn) [IV-69] were 10 to 20% and greater than 60%.
In the case of `COCc1cc(C(F)F)n2ccc(C(=O)NC3(c4cc(F)cc(F)c4)CC3)c2n1` [III-9], the activation at 0.1 µM was less than 10% and the activation at 1 µM was less than 30%.
The matching figures for `CCC(NC(=O)c1ccn2c(C)cc(C)nc12)c1ncccc1C` (stereo not drawn) [IV-57]: less than 10% and less than 30%.
With `Cc1cc(C)n2ccc(C(=O)NC(CO)c3cccc4ccccc34)c2n1` (stereo not drawn) [IV-94], the activation at 0.1 µM was less than 10% and the activation at 1 µM lay in the range of 30 to 60%.
Regarding `COc1ccc(F)cc1C(C)NC(=O)c1ccn2c(C)cc(C)nc12` (stereo not drawn) [IV-74], the activation at 0.1 µM was greater than 20% and the activation at 1 µM is greater than 60%.
Taken in the same sequence, the figures for `Cc1cc(C)n2ccc(C(=O)NC(C)c3ccc(F)c(C)c3)c2n1` (stereo not drawn) [IV-107] were 10 to 20% and greater than 60%.
